Data reported in article PMC6199744, “Development of Chemical Proteomics for the Folateome and Analysis of the Kinetoplastid Folateome” (ACS Infectious Diseases, 2018).
Like-named read-outs stand apart in the source and are kept apart here.

Legend:
Format in all cases: binding
[1] = molecular target: T1, HeLa cell extract proteins (Homo sapiens, UniProt Q9NQC3); conditions: HeLa; protein RTN4
T1 construct: endogenous in cells; host or cells: HeLa cell extract
T1 sequence (Q9NQC3 1-1192): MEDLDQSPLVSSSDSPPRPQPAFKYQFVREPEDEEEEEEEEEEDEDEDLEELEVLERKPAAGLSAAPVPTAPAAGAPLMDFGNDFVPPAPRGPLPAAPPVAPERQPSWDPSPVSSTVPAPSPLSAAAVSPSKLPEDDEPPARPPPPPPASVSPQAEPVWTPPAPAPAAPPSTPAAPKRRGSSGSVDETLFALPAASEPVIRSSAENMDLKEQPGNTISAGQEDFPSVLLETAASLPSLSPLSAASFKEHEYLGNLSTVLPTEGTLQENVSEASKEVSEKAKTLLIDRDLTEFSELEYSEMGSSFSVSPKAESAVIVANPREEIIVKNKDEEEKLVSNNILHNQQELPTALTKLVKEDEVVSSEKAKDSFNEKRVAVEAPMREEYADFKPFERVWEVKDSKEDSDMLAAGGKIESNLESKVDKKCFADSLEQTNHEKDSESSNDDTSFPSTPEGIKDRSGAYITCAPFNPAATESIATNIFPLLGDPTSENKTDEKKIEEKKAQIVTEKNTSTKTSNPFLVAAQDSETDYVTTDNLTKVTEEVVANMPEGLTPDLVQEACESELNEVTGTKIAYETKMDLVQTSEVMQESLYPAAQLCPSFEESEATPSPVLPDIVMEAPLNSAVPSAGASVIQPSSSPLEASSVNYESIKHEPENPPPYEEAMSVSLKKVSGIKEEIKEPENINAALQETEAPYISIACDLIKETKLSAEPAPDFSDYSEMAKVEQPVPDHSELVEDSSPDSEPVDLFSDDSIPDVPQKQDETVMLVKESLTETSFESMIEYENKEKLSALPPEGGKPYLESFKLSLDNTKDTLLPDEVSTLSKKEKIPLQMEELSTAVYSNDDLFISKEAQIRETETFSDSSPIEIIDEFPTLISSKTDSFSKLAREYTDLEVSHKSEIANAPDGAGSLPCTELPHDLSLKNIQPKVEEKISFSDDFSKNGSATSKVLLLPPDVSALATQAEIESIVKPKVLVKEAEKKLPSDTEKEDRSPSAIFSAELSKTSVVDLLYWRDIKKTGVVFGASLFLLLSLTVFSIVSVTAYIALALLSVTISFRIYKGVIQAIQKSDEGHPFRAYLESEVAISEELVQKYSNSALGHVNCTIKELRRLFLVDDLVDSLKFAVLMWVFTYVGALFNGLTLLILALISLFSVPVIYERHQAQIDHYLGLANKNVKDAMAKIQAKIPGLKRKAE

[2] = molecular target: T2, HeLa cell extract proteins (Homo sapiens, UniProt Q15020)
T2 construct: endogenous in cells; host or cells: HeLa cell extract
T2 sequence (Q15020 1-963): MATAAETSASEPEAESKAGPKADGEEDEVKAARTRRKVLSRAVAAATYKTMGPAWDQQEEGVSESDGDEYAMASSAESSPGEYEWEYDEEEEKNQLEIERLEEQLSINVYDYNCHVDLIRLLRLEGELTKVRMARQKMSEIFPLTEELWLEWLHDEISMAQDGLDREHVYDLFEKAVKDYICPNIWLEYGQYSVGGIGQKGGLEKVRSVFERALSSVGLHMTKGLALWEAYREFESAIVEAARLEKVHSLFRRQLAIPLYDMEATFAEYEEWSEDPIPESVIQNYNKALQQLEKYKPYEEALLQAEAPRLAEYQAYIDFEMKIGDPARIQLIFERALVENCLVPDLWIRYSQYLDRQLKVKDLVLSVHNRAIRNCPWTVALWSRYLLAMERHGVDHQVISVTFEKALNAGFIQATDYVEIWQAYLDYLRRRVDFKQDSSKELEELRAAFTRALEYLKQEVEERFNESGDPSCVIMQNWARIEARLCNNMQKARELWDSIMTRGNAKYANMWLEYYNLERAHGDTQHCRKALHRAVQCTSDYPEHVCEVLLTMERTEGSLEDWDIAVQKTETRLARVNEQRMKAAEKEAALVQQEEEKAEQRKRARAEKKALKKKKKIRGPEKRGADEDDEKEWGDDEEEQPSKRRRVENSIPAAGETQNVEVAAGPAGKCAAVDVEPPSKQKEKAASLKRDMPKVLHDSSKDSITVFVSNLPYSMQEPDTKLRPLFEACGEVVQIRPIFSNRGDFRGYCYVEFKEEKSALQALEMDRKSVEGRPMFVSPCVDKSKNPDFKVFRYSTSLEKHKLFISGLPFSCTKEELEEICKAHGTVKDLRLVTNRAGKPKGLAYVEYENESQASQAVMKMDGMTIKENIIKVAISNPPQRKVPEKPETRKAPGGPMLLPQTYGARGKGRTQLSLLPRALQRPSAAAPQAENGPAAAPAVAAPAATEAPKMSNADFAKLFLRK

[3] = molecular target: T3, HeLa cell extract proteins (Homo sapiens, UniProt P55209)
T3 construct: endogenous in cells; host or cells: HeLa cell extract
T3 sequence (P55209 1-391): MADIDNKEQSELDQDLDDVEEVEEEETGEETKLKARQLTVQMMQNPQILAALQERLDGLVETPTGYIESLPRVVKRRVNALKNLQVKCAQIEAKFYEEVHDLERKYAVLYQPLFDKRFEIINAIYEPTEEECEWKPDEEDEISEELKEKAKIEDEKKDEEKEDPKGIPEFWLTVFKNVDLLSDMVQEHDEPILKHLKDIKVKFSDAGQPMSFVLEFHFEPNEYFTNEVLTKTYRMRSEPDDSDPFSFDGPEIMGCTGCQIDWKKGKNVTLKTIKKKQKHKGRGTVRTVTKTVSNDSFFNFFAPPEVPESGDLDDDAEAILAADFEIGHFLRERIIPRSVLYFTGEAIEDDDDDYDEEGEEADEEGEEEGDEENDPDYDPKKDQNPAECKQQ

SMILES: Nc1nc2cccc(-c3ccccc3)c2n1Cc1ccc(Cl)c(Cl)c1 [compound 3]
- fold changes relative to vehicle control [1]: 1

SMILES: Nc1nc2[nH]cc(CCc3ccc(C(=O)N[C@@H](CCC(=O)O)C(=O)O)cc3)c2c(=O)[nH]1 [PTX, pemetrexed]
- fold changes relative to vehicle control [2]: 0.84
- fold changes relative to vehicle control [3]: 1.04

SMILES: Nc1nc2c(c(=O)[nH]1)N(C=O)C(CNc1ccc(C(=O)N[C@@H](CCC(=O)O)C(=O)O)cc1)CN2 (some centres unmarked) [LEU, leucovorin]
- fold changes relative to vehicle control ([2]; protein SART3, HeLa): 0.82
- fold changes relative to vehicle control ([3]; HeLa, captured protein NAP1L1): 0.97

SMILES: CCCCCCOc1cccc(Cc2cnc(N)nc2N)c1 [compound 2]
- fold changes relative to vehicle control [1]: 1.21

SMILES: NCCOCCOCC(=O)Nc1nc2ncc(CNc3ccc(C(=O)NC(CCC(=O)O)C(=O)O)cc3)nc2c(=O)[nH]1 (centres unmarked) [compound 6]
- fold changes relative to vehicle control ([2]; protein SART3, HeLa): 0.89
- fold changes relative to vehicle control ([3]; HeLa, captured protein NAP1L1): 1.19

SMILES: CCCCCCOc1ccc(Cc2cnc(N)nc2N)cc1 [compound 1]
- fold changes relative to vehicle control [1]: 0.39

SMILES: NCCCNc1ccc(C(=O)NC(CCC(=O)O)C(=O)O)cc1 (centres unmarked) [compound 7]
- fold changes relative to vehicle control ([2]; protein SART3, HeLa): 0.94
- fold changes relative to vehicle control ([3]; HeLa, captured protein NAP1L1): 1.06
